Literature values, collected in US20060159689A1, “Combinations of tumor-associated antigens in diagnostics for various types of cancers” (priority 2004, published 2006).

Tested on: VEGF-A
Conditions: colorectal, lung, breast, ovarian carcinoma and other cancers

VEGF-A, sequence (P15692 207-311 limits assumed): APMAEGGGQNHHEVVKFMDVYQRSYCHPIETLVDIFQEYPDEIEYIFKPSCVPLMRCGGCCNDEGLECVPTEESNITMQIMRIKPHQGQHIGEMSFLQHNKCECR

**Q.** Which “effect on tumor progression and metastatic disease” value does the source give for bevacizumab here?
**A.** The value was “control of tumor progression and metastatic disease”.
